Among the data in US10077237B2 (Sanofi, priority 2013, dated 2018) are EC50 and Emax values, retold here.

The target of this test is T1, recombinant human AMPK complex, containing α2β1γ2 (Homo sapiens, UniProt P54646+Q9Y478).
T1 construct: hsAMPKα2-552-His, hsAMPKβ1-2-270 and hsAMPKγ-2-569 respectively; hsAMPKβ1-2-270; hsAMPKγ-2-569; His (C); made in house; host or cells: Spodoptera frugiperda Sf21 (baculovirus)
As to the kind of experiment: AMPK in vitro activation assay (HTRF). Type of test: biochemical. Conditions: for EC50: HTRF, recombinant human α2β1γ2 AMPK, 200 μM ATP, biotinylated ACC-CREBp peptide, repeat determinations on separate lines; for Emax: potentiation of AMPK activity as percent over the basal signal (without compound). The procedure, abridged:
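Sf21-expressed, Ni-NTA partially purified α2β1γ2 complex preincubated 30 min at room temperature with compound (0.5% DMSO) in HEPES pH 7.0, MgCl2, DTT. Reaction was started with a solution holding 200 μM ATP and 2 or 0.08 μM biotinylated ACC-CREBp peptide, run 45 min at 37° C, then read by HTRF with anti-pS133-CREB; EC50 from percent over basal.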
On the technique in general: TR-FRET usually uses a lanthanide donor and a delayed reading to cut background.

Several values for one entry are separate records, joined by “and”; a condition that tells them apart may be missing. Equal values may be shown once. Where a name gives a salt, the structure may show the parent alone.

T1 sequence (P54646 2-552): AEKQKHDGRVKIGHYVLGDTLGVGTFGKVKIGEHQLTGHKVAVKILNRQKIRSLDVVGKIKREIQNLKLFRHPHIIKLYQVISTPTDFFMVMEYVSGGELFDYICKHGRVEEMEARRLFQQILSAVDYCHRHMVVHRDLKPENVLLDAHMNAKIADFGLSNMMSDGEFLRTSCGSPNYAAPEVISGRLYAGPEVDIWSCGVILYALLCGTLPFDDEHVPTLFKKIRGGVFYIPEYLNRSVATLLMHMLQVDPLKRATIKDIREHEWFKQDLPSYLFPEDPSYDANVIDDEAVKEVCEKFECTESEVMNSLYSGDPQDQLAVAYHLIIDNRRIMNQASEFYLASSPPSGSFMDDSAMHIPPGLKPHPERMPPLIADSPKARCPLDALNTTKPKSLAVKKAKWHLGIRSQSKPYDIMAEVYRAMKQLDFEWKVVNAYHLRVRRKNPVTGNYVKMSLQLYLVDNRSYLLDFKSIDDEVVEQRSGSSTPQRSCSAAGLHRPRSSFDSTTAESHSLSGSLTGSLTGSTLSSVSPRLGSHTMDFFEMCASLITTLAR
T1 sequence (Q9Y478 2-270): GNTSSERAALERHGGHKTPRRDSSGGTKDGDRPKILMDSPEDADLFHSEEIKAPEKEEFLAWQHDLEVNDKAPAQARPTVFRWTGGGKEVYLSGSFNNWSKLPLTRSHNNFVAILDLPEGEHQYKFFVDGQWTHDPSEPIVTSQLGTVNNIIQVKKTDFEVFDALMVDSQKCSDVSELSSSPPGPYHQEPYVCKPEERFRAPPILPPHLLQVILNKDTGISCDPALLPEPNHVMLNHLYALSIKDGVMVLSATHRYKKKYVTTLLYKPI
T1 sequence (Q9UGJ0 2-569 partner limits assumed): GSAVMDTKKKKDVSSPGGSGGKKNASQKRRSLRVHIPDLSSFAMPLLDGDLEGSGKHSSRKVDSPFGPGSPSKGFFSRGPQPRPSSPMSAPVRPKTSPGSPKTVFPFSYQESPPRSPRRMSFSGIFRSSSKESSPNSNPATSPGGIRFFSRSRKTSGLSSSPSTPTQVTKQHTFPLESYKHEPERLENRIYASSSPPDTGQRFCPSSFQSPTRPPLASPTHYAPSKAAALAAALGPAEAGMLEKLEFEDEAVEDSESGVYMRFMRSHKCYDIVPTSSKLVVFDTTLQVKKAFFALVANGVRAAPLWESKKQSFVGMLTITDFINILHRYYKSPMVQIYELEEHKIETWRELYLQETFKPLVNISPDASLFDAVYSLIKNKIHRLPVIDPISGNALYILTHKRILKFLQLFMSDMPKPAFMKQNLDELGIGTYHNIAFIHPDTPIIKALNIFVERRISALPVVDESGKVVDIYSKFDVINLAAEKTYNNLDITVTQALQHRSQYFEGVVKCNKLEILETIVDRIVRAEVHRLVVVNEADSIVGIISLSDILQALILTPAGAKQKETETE

Regarding `Cc1cc(C(O)=C2C(=O)Nc3cc(Cl)c(-c4ccc(-c5ccco5)cc4)cc32)on1` [Compound 65, 6-Chloro-5-(4-furan-2-yl-phenyl)-3-[1-hydroxy-1-(3-methyl-isoxazol-5-yl)methylidene]-1,3-dihydro-indol-2-one], the EC50 (commonly the midpoint of the concentration-response curve) was found to be 120 nM and the Emax (as a rule, the maximal effect, on the per cent scale that the assay sets) came out at 113%.

As for `CCOc1ccc(-c2cc3c(cc2Cl)NC(=O)C3=C(O)c2cc(C)no2)cc1` [Compound 66, 6-Chloro-5-(4-ethoxy-phenyl)-3-[1-hydroxy-1-(3-methyl-isoxazol-5-yl)-methylidene]-1,3-dihydro-indol-2-one], the EC50 was determined as 3070 nM and the Emax worked out at 192%.

As to `COc1cc(C(O)=C2C(=O)Nc3cc(Cl)c(-c4ccc(C5=CCOCC5)cc4)cc32)on1` [Compound 67, 6-Chloro-5-[4-(3,6-dihydro-2H-pyran-4-yl)phenyl]-3-[1-hydroxy-1-(3-methoxy-isoxazol-5-yl)methylidene]-1,3-dihydro-indol-2-one], the EC50 turned out to be 3 nM and the Emax is 192%.

In the case of `Cc1cc(C(O)=C2C(=O)Nc3cc(Cl)c(-c4ccc(C5CCCO5)cc4)cc32)on1` (stereo not drawn) [Compound 68, 6-Chloro-3-[1-hydroxy-1-(3-methyl-isoxazol-5-yl)methylidene]-5-[4-(tetrahydro-furan-2-yl)phenyl]-1,3-dihydro-indol-2-one], the EC50 came out at 150 nM and the Emax stood at 208%.

As to `Cc1cc(C(O)=C2C(=O)Nc3cc(Cl)c(-c4ccc(OCCCN5CCNCC5)cc4)cc32)on1` [Compound 69, 6-Chloro-3-[1-hydroxy-1-(3-methyl-isoxazol-5-yl)methylidene]-5-[4-(3-piperazin-1-yl-propoxy)phenyl]-1,3-dihydro-indol-2-one, hydrochloride], the EC50 was determined as 8 nM and the Emax is 134%.

With `Cc1cc(C(O)=C2C(=O)Nc3cc(Cl)c(-c4ccc(OCCCN5CCN(C)CC5)cc4)cc32)on1` [Compound 70, 6-Chloro-3-[1-hydroxy-1-(3-methyl-isoxazol-5-yl)methylidene]-5-{4-[3-(4-methyl-piperazin-1-yl)-propoxy]-phenyl}-1,3-dihydro-indol-2-one, hydrochloride], the EC50 was 88 nM and the Emax came out at 142%.

Take `COc1cc(C(O)=C2C(=O)Nc3cc(F)c(-c4ccc(-c5cccc(OC)c5O)cc4)cc32)on1` [Compound 71, 6-Fluoro-5-(2′-hydroxy-3′-methoxy-biphenyl-4-yl)-3-[1-hydroxy-1-(3-methoxy-isoxazol-5-yl)methylidene]-1,3-dihydro-indol-2-one]: the EC50 was 2 nM and the Emax worked out at 158%.

As to `Cc1cc(C(O)=C2C(=O)Nc3cc(F)c(-c4ccc(C5(CO)CC5)cc4)cc32)on1` [Compound 72, 6-Fluoro-5-[4-(1-hydroxymethyl-cyclopropyl)phenyl]-3-[1-hydroxy-1-(3-methyl-isoxazol-5-yl)methylidene]-1,3-dihydro-indol-2-one], the EC50 turned out to be 2 nM and the Emax turned out to be 159%.

Take `O=C1Nc2cc(Cl)c(-c3ccc(C4(CO)CC4)cc3)cc2C1=C(O)c1cc(Br)no1` [Compound 73, 3-[1-(3-Bromo-isoxazol-5-yl)-1-hydroxy-methylidene]-6-chloro-5-[4-(1-hydroxymethyl-cyclopropyl)phenyl]-1,3-dihydro-indol-2-one]: the EC50 was 6 nM and the Emax came to 148%.

`Cc1cc(C(O)=C2C(=O)Nc3cc(Cl)c(-c4ccc(N5CCN(C)CC5)cc4)cc32)on1` [Compound 74, 6-Chloro-3-[1-hydroxy-1-(3-methyl-isoxazol-5-yl)methylidene]-5-[4-(4-methyl-piperazin-1-yl)-phenyl]-1,3-dihydro-indol-2-one, hydrochloride]: the EC50 is 112 nM and the Emax amounted to 213%.

For `Cc1ncc(C(O)=C2C(=O)Nc3cc(Cl)c(-c4ccc(C5(CO)CC5)cc4)cc32)s1` [Compound 75, 6-Chloro-5-[4-(1-hydroxymethyl-cyclopropyl)phenyl]-3-[1-hydroxy-1-(2-methyl-thiazol-5-yl)methylidene]-1,3-dihydro-indol-2-one], the EC50 was found to be 1 nM and the Emax is 142%.

Regarding `CC(C)(C)c1cc(C(O)=C2C(=O)Nc3cc(Cl)c(-c4ccc(C5(CO)CC5)cc4)cc32)on1` [Compound 76, 3-[1-(3-tert-Butyl-isoxazol-5-yl)-1-hydroxy-methylidene]-6-chloro-5-[4-(1-hydroxymethyl-cyclopropyl)phenyl]-1,3-dihydro-indol-2-one], the EC50 turned out to be 2 nM and the Emax worked out at 124%.

On to `COc1ccc(C(O)=C2C(=O)Nc3cc(Cl)c(-c4ccc(N5CCOCC5)cc4)cc32)cc1F` [Compound 77, 6-Chloro-3-[1-(3-fluoro-4-methoxy-phenyl)-1-hydroxy-methylidene]-5-(4-morpholin-4-yl-phenyl)-1,3-dihydro-indol-2-one], for which the EC50 turned out to be 0.5 nM and the maximum response (Emax) was 128%.

Turning to `Cc1cc(C(O)=C2C(=O)Nc3cc(Cl)c(-c4ccc(C5CCN(C)CC5)cc4)cc32)on1` [Compound 78, 6-Chloro-3-[1-hydroxy-1-(3-methyl-isoxazol-5-yl)methylidene]-5-[4-(1-methyl-piperidin-4-yl)phenyl]-1,3-dihydro-indol-2-one, hydrochloride], the EC50 amounted to 7 nM and the Emax turned out to be 141%.

Take `COCCOc1cc(C(O)=C2C(=O)Nc3cc(Cl)c(-c4ccc(-c5cccc(OC)c5O)cc4)cc32)on1` [Compound 79, 6-chloro-3-[hydroxy-[3-(2-methoxyethoxy)isoxazol-5-yl]methylene]-5-[4-(2-hydroxy-3-methoxy-phenyl)phenyl]indolin-2-one]: the EC50 is 38 nM and the Emax was determined as 133%.

With `Cc1cc(C(O)=C2C(=O)Nc3cc(Cl)c(-c4ccc(C(O)(CO)CCl)cc4)cc32)on1` (stereo not drawn) [Compound 80, 6-chloro-5-[4-[1-(chloromethyl)-1,2-dihydroxy-ethyl]phenyl]-3-[hydroxy-(3-methylisoxazol-5-yl)methylene]indolin-2-one], the concentration giving a half-maximal response (EC50) is 15 nM and the Emax worked out at 99%.

`COc1cc(-c2cc3c(cc2Cl)NC(=O)C3=C(O)c2cc(C)no2)ccc1O` [Compound 81, 6-chloro-5-(4-hydroxy-3-methoxy-phenyl)-3-[hydroxy-(3-methylisoxazol-5-yl)methylene]indolin-2-one]: the EC50 stood at 780 nM and the Emax came out at 136%.

`Cc1cc(C(O)=C2C(=O)Nc3cc(Cl)c(-c4ccc(OCCN5CCOCC5)cc4)cc32)on1` [Compound 82, 6-chloro-3-[hydroxy-(3-methylisoxazol-5-yl)methylene]-5-[4-(2-morpholinoethoxy)phenyl]indolin-2-one hydrochloride]: the EC50 is 280 nM and the Emax worked out at 130%.

Turning to `COc1cc(C(O)=C2C(=O)Nc3cc(F)c(-c4ccc(C5(CO)CC5)cc4)c(F)c32)on1` [Compound 83, 4,6-difluoro-3-[hydroxy-(3-methoxyisoxazol-5-yl)methylene]-5-[4-[1-(hydroxymethyl)cyclopropyl]phenyl]indolin-2-one], the EC50 was 0.1 nM.

Turning to `COc1ccc(C(O)=C2C(=O)Nc3cc(Cl)c(-c4ccc(-c5cccc(OC)c5O)cc4)cc32)cc1F` [Compound 84, 6-chloro-3-[(3-fluoro-4-methoxy-phenyl)hydroxy-methylene]-5-[4-(2-hydroxy-3-methoxy-phenyl)phenyl]indolin-2-one], the EC50 is 0.6 nM and 1 nM; the Emax worked out at 170%.

`Cc1cc(C(O)=C2C(=O)Nc3cc(Cl)c(-c4ccc(C5(CO)CC5)cc4F)cc32)on1` [Compound 85, 6-chloro-5-[2-fluoro-4-[1-(hydroxymethyl)cyclopropyl]phenyl]-3-[hydroxy-(3-methylisoxazol-5-yl)methylene]indolin-2-one]: the EC50 was found to be 1 nM and the Emax worked out at 151%.

Regarding `O=C1Nc2cc(Cl)c(-c3ccc(N4CCOCC4)cc3)cc2C1=C(O)c1cc(C2CCCCC2)no1` [Compound 86, 6-chloro-3-[(3-cyclohexylisoxazol-5-yl)hydroxy-methylene]-5-(4-morpholinophenyl)indolin-2-one], the EC50 was determined as 61 nM and the Emax turned out to be 155%.

Take `O=C1Nc2cc(Cl)c(-c3ccc(N4CCOCC4)cc3)cc2C1=C(O)c1cc(C2CC2)no1` [Compound 87, 6-chloro-3-[(3-cyclopropylisoxazol-5-yl)hydroxy-methylene]-5-(4-morpholinophenyl)indolin-2-one]: the EC50 is 0.5 nM and 0.6 nM.

In the case of `COc1ccc(C(O)=C2C(=O)Nc3cc(Cl)c(-c4ccc(C5(CO)CC5)cc4)cc32)cc1F` [Compound 88, 6-chloro-3-[(3-fluoro-4-methoxy-phenyl)hydroxy-methylene]-5-[4-[1-(hydroxymethyl)cyclopropyl]phenyl]indolin-2-one], the EC50 was 0.6 nM and 0.4 nM.

Take `COc1cc(C(O)=C2C(=O)Nc3cc(Cl)c(-c4ccc(C5(O)CCOCC5)cc4)cc32)on1` [Compound 89, 6-chloro-3-[hydroxy-(3-methoxyisoxazol-5-yl)methylene]-5-[4-(4-hydroxytetrahydropyran-4-yl)phenyl]indolin-2-one]: the EC50 amounted to 7 nM and the Emax was determined as 203%.

`COc1cccc(-c2ccc(-c3cc4c(cc3Cl)NC(=O)C4=C(O)c3cc(OCCN4CCOCC4)no3)cc2)c1O` [Compound 90, 6-chloro-5-[4-(2-hydroxy-3-methoxy-phenyl)phenyl]-3-[hydroxy-[3-(2-morpholinoethoxy)isoxazol-5-yl]methylene]indolin-2-one]: the EC50 is 0.1 nM and 0.2 nM.
